We go through 29 molecules from patent US20230279016A1, “Tetrahydropyrazolopyrimidines and Related Analogs for Inhibiting YAP/TAZ-TEAD” (THE KATHOLIEKE UNIVERSITEIT LEUVEN, priority 2021, published 2023).

The structures appear in SMILES notation. Where only a bound is given, the exact number is not on record here.

This assay deals with YAP/TAZ-TEAD transcription. Nature of the assay: Reporter gene assay for measuring the inhibition of YAP/TAZ-TEAD transcription (TEAD-responsive element luciferase reporter in Hek293T cells). Format: cell-based. The note with it: Hek293T cells transiently transfected with TEAD-responsive element luciferase reporter, 24 hours incubation. The procedure: Hek293T cells are cultured in DMEM supplemented with 10% fetal bovine serum, Sodium pyruvate, Sodium bicarbonate, L-glutamine. The cells are harvested and transiently transfected with TEAD-responsive element luciferase reporter. Transfected cells are plated in 384-wells plate containing pre-diluted compounds. After 24 hours incubation at 37° C./5%CO2, assay plates were cooled down to RT and levelled to an equal volume per well, prior to the addition of 25 uL luciferase substrate SteadyLite (Perkin Elmer)/well. The plate was shaken for 10 min at 600 rpm, centrifuged for 1min at 500 rpm and measured with an Envision reader (PerkinElmer). The amount of relative light units produced by the TEAD reporter is used to calculated percent of inhibition.
The percent of reporter inhibition was calculated in the presence of a positive control inhibitor (100% inhibition) versus a condition with the presence of the vehicle basal activity of the reporter (0% inhibition). The ability of a test compound to inhibit this activity was determined as:
Percentage inhibition=[1-((RLU determined in the presence of vehicle—RLU determined for sample with test compound present) divided by (RLU determined in the presence of vehicle — RLU determined for sample with positive control inhibitor))] * 100
The activities of the example compounds tested are depicted in the table below. The activity ranges A, B and C refer to EC50 values in the reporter gene assay as described as follows: “A”: EC50 <1 μM; “B” : 1 μM≤EC50≤20 μM and “C” : EC50>20 μM, NT=not tested.

Molecule `C=CC(=O)NCC1CN(c2ccc(C(F)(F)F)cc2)c2cnc(C(F)(F)F)n2C1` (single isomer, unassigned) [Cpd. No. 094-En1, (R)- or (S)-N-((6-(trifluoromethyl)-1-(4-(trifluoromethyl)phenyl)-1,2,3,4-tetrahydroimidazo[1,5-a]pyrimidin-3-yl)methyl)acrylamide] had a concentration giving a half-maximal response (EC50) below 1 µM.

Take `N#CCC(=O)NCC1CN(c2ccc(C(F)(F)F)cc2)c2ccnn2C1` (centres unmarked) [Cpd. No. 042, 2-cyano-N-((4-(4-(trifluoromethyl)phenyl)-4,5,6,7-tetrahydropyrazolo[1,5-a]pyrimidin-6-yl)methyl)acetamide]: the 50% effective concentration (EC50) (Homo sapiens, HEK-293T, 24 h) is above 20 µM.

`C=CC(=O)NC1CN(c2ccc(C(F)(F)F)cc2)c2ccnn2C1` (single isomer, unassigned) [Cpd. No. 061-En1, (R)- or (S)-N-(4-(4-(trifluoromethyl)phenyl)-4,5,6,7-tetrahydropyrazolo[1,5-a]pyrimidin-6-yl)acrylamide] had a half-maximal effective concentration (EC50) below 1 µM.

Where the note is “Homo sapiens, HEK-293T, 24 h”, `C=CC(=O)NCC1CN(c2cnn(C(F)F)c2)c2ccnn2C1` (centres unmarked) [Cpd. No. 025, N-((4-(1-(difluoromethyl)-1H-pyrazol-4-yl)-4,5,6,7-tetrahydropyrazolo[1,5-a]pyrimidin-6-yl)methyl)acrylamide] registered a 50% effective concentration (EC50) above 20 µM.

The molecule `C=CC(=O)NCC1CN(C(=O)C2CCCCC2)c2ccnn2C1` (single isomer, unassigned) [Cpd. No. 046-En2, (R)- or (S)-N-((4-(cyclohexanecarbonyl)-4,5,6,7-tetrahydropyrazolo[1,5-a]pyrimidin-6-yl)methyl)acrylamide] showed a 50% effective concentration (EC50) of 1 to 20 µM.

The molecule `C=CC(=O)NCC1CN(c2ccc(-c3ccccc3)cc2)c2ccnn2C1` (single isomer, unassigned) [Cpd. No. 017-En2, (R)- or (S)-N-((4-([1,1′-biphenyl]-4-yl)-4,5,6,7-tetrahydropyrazolo[1,5-a]pyrimidin-6-yl)methyl)acrylamide] yielded an EC50 below 1 µM.

On to `CCC(=O)NCC1CN(c2ccc(C(F)(F)F)cc2)c2ccnn2C1` (centres unmarked) [Cpd. No. 028, N-((4-(4-(trifluoromethyl)phenyl)-4,5,6,7-tetrahydropyrazolo[1,5-a]pyrimidin-6-yl)methyl)propionamide], for which the concentration giving a half-maximal response (EC50) is below 1 µM.

`C=CC(=O)NCC1CN(c2ccc(C(F)(F)F)cc2)c2cnc(C(F)(F)F)n2C1` (single isomer, unassigned) [Cpd. No. 094-En2, (R)- or (S)-N-((6-(trifluoromethyl)-1-(4-(trifluoromethyl)phenyl)-1,2,3,4-tetrahydroimidazo[1,5-a]pyrimidin-3-yl)methyl)acrylamide] had a concentration for a half-maximal effect (EC50) below 1 µM.

On to `C=CC(=O)NCC1CN(c2ccn(C)c(=O)c2)c2ccnn2C1` (single isomer, unassigned) [Cpd. No. 024-En1, (R)- or (S)-N-((4-(1-methyl-2-oxo-1,2-dihydropyridin-4-yl)-4,5,6,7-tetrahydropyrazolo[1,5-a]pyrimidin-6-yl)methyl)acrylamide], for which the 50% effective concentration (EC50) (Homo sapiens, HEK-293T, 24 h) is above 20 µM.

`CN1CCC2(CN(c3ccc(C(F)(F)F)cc3)c3ccnn3C2)C1=O` (single isomer, unassigned) [Cpd. No. 090-En1, (R)- or (S)-1′-methyl-4-(4-(trifluoromethyl)phenyl)-4,5-dihydro-7H-spiro[pyrazolo[1,5-a]pyrimidine-6,3′-pyrrolidin]-2′-one] had an EC50 (Homo sapiens, HEK-293T, 24 h) above 20 µM.

Molecule `C=CC(=O)NCC1CN(c2ccc(C(F)F)cc2)c2ccnn2C1` (centres unmarked) [Cpd. No. 009, N-((4-(4-(difluoromethyl)phenyl)-4,5,6,7-tetrahydropyrazolo[1,5-a]pyrimidin-6-yl)methyl)acrylamide] returned an EC50 (Homo sapiens, HEK-293T, 24 h) below 1 µM.

Where the note is “Homo sapiens, HEK-293T, 24 h”, `CCC(=O)NCC1CN(Cc2ccc(C(F)(F)F)cc2)c2ccnn2C1` (centres unmarked) [Cpd. No. 050, N-((4-(4-(trifluoro-methyl)benzyl)-4,5,6,7-tetrahydropyrazolo[1,5-a]pyrimidin-6-yl)-methyl)propionamide] returned a concentration for a half-maximal effect (EC50) above 20 µM.

Regarding `CCC(=O)NC1CN(c2ccc(C(F)(F)F)cc2)c2ccnn2C1` (centres unmarked) [Cpd. No. 062, N-(4-(4-(trifluoromethyl)phenyl)-4,5,6,7-tetrahydropyrazolo[1,5-a]pyrimidin-6-yl)propionamide], the EC50 (Homo sapiens, HEK-293T, 24 h) is above 20 µM.

On to `CCC(=O)NCC1Cc2c(cnn2C)N(c2ccc(C(F)(F)F)cc2)C1` (centres unmarked) [Cpd. No. 072, N-((1-methyl-4-(4-(trifluoromethyl)phenyl)-4,5,6,7-tetrahydro-1H-pyrazolo[4,3-b]pyridin-6-yl)methyl)propionamide], for which the concentration for a half-maximal effect (EC50) (Homo sapiens, HEK-293T, 24 h) was above 20 µM.

For `C=CC(=O)NCC1CN(CC2CCCCC2)c2ccnn2C1` (centres unmarked) [Cpd. No. 055, N-((4-(cyclohexylmethyl)-4,5,6,7-tetrahydropyrazolo[1,5-a]pyrimidin-6-yl)-methyl)acrylamide], the EC50 (Homo sapiens, HEK-293T, 24 h) was below 1 µM.

Molecule `CS(=O)(=O)N1CCC2(CN(c3ccc(C(F)(F)F)cc3)c3ccnn3C2)C1=O` (single isomer, unassigned) [Cpd. No. 089-En2, (R)- or (S)-1′-(methylsulfonyl)-4-(4-(trifluoromethyl)phenyl)-4,5-dihydro-7H-spiro[pyrazolo[1,5-a]pyrimidine-6,3′-pyrrolidin]-2′-one] returned an EC50 above 20 µM.

`C=CC(=O)NCC1CN(c2ccc3scnc3c2)c2ccnn2C1` (single isomer, unassigned) [Cpd. No. 026-En2, (R)- or (S)-N-((4-(benzo[d]thiazol-5-yl)-4,5,6,7-tetrahydropyrazolo[1,5-a]pyrimidin-6-yl)methyl)acrylamide] yielded an EC50 of 1 to 20 µM.

In the case of `C#Cc1ccc(N2CC(CNC(=O)C=C)Cn3nccc32)cc1` (centres unmarked) [Cpd. No. 036, N-((4-(4-ethynylphenyl)-4,5,6,7-tetrahydropyrazolo[1,5-a]pyrimidin-6-yl)methyl)acrylamide], the half-maximal effective concentration (EC50) (Homo sapiens, HEK-293T, 24 h) is below 1 µM.

`CCC(=O)NCC1Cc2nn(C)cc2N(c2ccc(C(F)(F)F)cc2)C1` (centres unmarked) [Cpd. No. 073, N-((2-methyl-4-(4-(trifluoromethyl)phenyl)-4,5,6,7-tetrahydro-2H-pyrazolo[4,3-b]pyridin-6-yl)methyl)propionamide] gave an EC50 (Homo sapiens, HEK-293T, 24 h) below 1 µM.

Molecule `C=CC(=O)N1CCC2(C1)CN(c1ccc(C(F)(F)F)cc1)c1ccnn1C2` (single isomer, unassigned) [Cpd. No. 088-En2, (R)- or (S)-1-(4-(4-(trifluoromethyl)phenyl)-4,5-dihydro-7H-spiro[pyrazolo[1,5-a]pyrimidine-6,3′-pyrrolidin]-1′-yl)prop-2-en-1-one] showed a 50% effective concentration (EC50) below 1 µM.

Take `C=CC(=O)NCC1CN(c2ccc(C(F)(F)F)cc2)c2cc(C(F)(F)F)nn2C1` (single isomer, unassigned) [Cpd. No. 034-En2, (R)- or (S)-N-((2-(trifluoromethyl)-4-(4-(trifluoromethyl)phenyl)-4,5,6,7-tetrahydropyrazolo[1,5-a]pyrimidin-6-yl)methyl)acrylamide]: the EC50 is below 1 µM.

In turn, `C=CC(=O)NCC1CN(c2ccc(-c3ccccc3)cc2)c2ccnn2C1` (centres unmarked) [Cpd. No. 017, N-((4-([1,1′-biphenyl]-4-yl)-4,5,6,7-tetrahydropyrazolo[1,5-a]pyrimidin-6-yl)methyl)acrylamide] had a 50% effective concentration (EC50) of 1 to 20 µM.

Regarding `C=CC(=O)NCC1CN(c2cccc(F)c2)c2ccnn2C1` (single isomer, unassigned) [Cpd. No. 004-En2, (R)- or (S)-N-((4-(3-fluorophenyl)-4,5,6,7-tetrahydropyrazolo[1,5-a]pyrimidin-6-yl)methyl)acrylamide], the concentration giving a half-maximal response (EC50) is below 1 µM.

As for `C=CC(=O)NCC1CN(c2ccc(-c3ccccc3)cc2)c2ccnn2C1` (single isomer, unassigned) [Cpd. No. 017-En1, (R)- or (S)-N-((4-([1,1′-biphenyl]-4-yl)-4,5,6,7-tetrahydropyrazolo[1,5-a]pyrimidin-6-yl)methyl)acrylamide], the EC50 was above 20 µM.

Regarding `CS(=O)(=O)NC(=O)C1CN(c2ccc(C(F)(F)F)cc2)c2ccnn2C1` (centres unmarked) [Cpd. No. 093, N-(methylsulfonyl)-4-(4-(trifluoromethyl)phenyl)-4,5,6,7-tetrahydropyrazolo[1,5-a]pyrimidine-6-carboxamide], the 50% effective concentration (EC50) (Homo sapiens, HEK-293T, 24 h) was above 20 µM.

The molecule `C=CC(=O)NCC1CN(c2ccc(C(F)(F)F)cc2)c2cc(C)nn2C1` (single isomer, unassigned) [Cpd. No. 029-En2, (R)- or (S)-N-((2-methyl-4-(4-(trifluoromethyl)phenyl)-4,5,6,7-tetrahydropyrazolo[1,5-a]pyrimidin-6-yl)methyl)acrylamide] returned an EC50 below 1 µM.

As for `C=CC(=O)NCC1CN(c2ccc(SC(F)(F)F)cc2)c2ccnn2C1` (centres unmarked) [Cpd. No. 020, N-((4-(4-((trifluoromethyl)thio)phenyl)-4,5,6,7-tetrahydropyrazolo[1,5-a]pyrimidin-6-yl)methyl)acrylamide], where the note is “Homo sapiens, HEK-293T, 24 h”, the EC50 was below 1 µM.

On to `C=CC(=O)NCC1CN(S(=O)(=O)c2ccc(C(F)(F)F)cc2)c2ccnn2C1` (centres unmarked) [Cpd. No. 045, N-((4-((4-(trifluoromethyl)phenyl)sulfonyl)-4,5,6,7-tetrahydropyrazolo[1,5-a]pyrimidin-6-yl)methyl)acrylamide], for which the 50% effective concentration (EC50) was above 20 µM.

For the molecule `C=CC(=O)NCC1CN(CC#Cc2ccccc2)c2ccnn2C1` (centres unmarked) [Cpd. No. 056, N-((4-(3-phenylprop-2-yn-1-yl)-4,5,6,7-tetrahydropyrazolo[1,5-a]pyrimidin-6-yl)-methyl)acrylamide], the EC50 (Homo sapiens, HEK-293T, 24 h) is below 1 µM.

As a reminder, the EC50 is the concentration at which the effect is half-maximal.
